# Tested on: Plasmodium falciparum
# Experiment: GSK_TCMDC: Inhibition of Plasmodium falciparum 3D7 in whole erythrocytes, using parasite LDH activity as an index of growth.
# Type: functional, organism-based
# Settings: Plasmodium falciparum, 3D7
row,SMILES,XC50 [nM]
1,Cn1ccc2c3c(N)nc(N)nc3ccc21,902
2,Cc1[nH]c(C)c(-c2ccc(Oc3ccc(Cl)cc3)cc2)c(=O)c1Cl,787
3,COc1ccc(CNC2CCN(C)CC2)cc1-c1ccc(S(=O)(=O)NC2CCC2)c(C)c1,993
4,CC(Cc1ccc(NC(=O)c2ccc(CNCCCCc3ccccc3)cc2)cc1)NCCc1cccc(Cl)c1 (stereo unspecified),334
5,CN(C)c1ccc(CN2CCCC(CNC(=O)c3ccc(-c4cccc(C(F)(F)F)c4)s3)C2)cc1 (stereo unspecified),1200
6,COc1cc(Nc2nccc(-c3c(-c4cccc(NC(=O)c5c(F)cccc5F)c4)nn4ncccc34)n2)cc(OC)c1OC,32.6
7,COc1ccc2ncc(C#N)c(CCN3CCC(NCc4cnc5c(c4)OCCO5)CC3)c2n1,595
8,Cc1cc(N[C@@H](Cc2ccccc2)C(=O)NCCOc2ccccc2)nc(NCC2CCCCC2)n1,854
9,Cc1cc(Nc2ccccc2)nc(Nc2ccccc2C)n1,1040
10,COc1cc(Cc2cnc(N)nc2N)cc(OCCCC#N)c1OC,1030
11,Cc1cccc2nc(-c3ccc(-c4cccc(CNCCNC(=O)c5ccnn5C)c4)cc3)[nH]c12,396
12,CC(=O)Nc1ccc(C(=O)Nc2cccc(-c3ccc(-c4nc5cc(C(F)(F)F)ccc5[nH]4)cc3)c2)cn1,231
13,CC1CN(c2cnn(C/C=C/c3ccc(NC(=O)c4ccc([N+](=O)[O-])cc4)cc3)c(=O)c2Cl)CC(C)N1 (stereo unspecified),700
14,COCCn1ccc2c3c(N)nc(N)nc3ccc21,214
15,COc1ccc(CNC2CCN(C)CC2)cc1-c1ccc(OC)c(S(=O)(=O)NCc2ccccc2)c1,951
16,CCOC(=O)C1CCN(CCOc2cc(NC(=O)/C=C/c3ccccc3Cl)ccc2Br)CC1,991
17,c1ccc(CCNCc2cccc(-c3ccc(CNc4ccc5ncccc5c4)cc3)c2)cc1,810
18,C=CCOC(=O)N1CCC(CNCc2cccc(-c3ccc(-c4nc5cc(C(F)(F)F)ccc5[nH]4)cc3)c2)C1 (stereo unspecified),146
19,CNC(=O)c1cc(S(=O)(=O)N2CCN(c3ccccn3)CC2)cs1,669
20,COc1ccc2nccc([C@@H](O)CN3CCC(NC(=O)c4cc5c(F)cc(F)cc5[nH]4)CC3)c2c1,245
21,O=C(Nc1cccc(C(F)(F)F)c1)c1cccc2nc(C(F)(F)F)[nH]c12,644
22,Clc1ccc(-c2ccc(CNCCCN3CCCC3)cc2)cc1,1060
23,Oc1cccc(Nc2nc(NCc3ccco3)c3ccccc3n2)c1,415
24,Cc1ccc(NC(=O)c2ccc3nccnc3c2)cc1OC1CCN(Cc2ccc(F)cc2)CC1,1010

row,SMILES,XC50 [nM]
1,CCCNS(=O)(=O)c1ccc(NC(=O)C(C)Oc2ccc([N+](=O)[O-])cc2)cc1 (stereo unspecified),719
2,COc1ccc2nccc(NC(=O)N3CCC(NCc4cc5c(F)ccc(F)c5[nH]4)CC3)c2n1,221
3,Cc1noc(C)c1-c1ccc2c(Nc3ccc(C(F)(F)F)cc3)c(C(N)=O)cnc2c1,319
4,O=C(NC1CCN(CCCOc2ccnc3cc(Cl)ccc23)C1)c1ccc(Br)cc1 (stereo unspecified),1020
5,Cc1ccc(NC(=O)N2CCN(CCCCCNC(=O)/C=C/c3ccc(Cl)c(Cl)c3)CC2)cc1C,1100
6,CC(C)(CNC(=O)/C=C/c1ccc(C(F)(F)F)cc1)CNc1cc(=O)c2ccccc2[nH]1,912
7,CCCc1cc(=O)oc2cc(OC)c(C(=O)CC(C)C)c(OC)c12,1010
8,CCNc1cc(C)nc(Nc2ccccc2)n1,883
9,CN1C2CCC1c1cc(NC(=O)c3cc(-c4ccc(Cl)cc4)cs3)ccc12 (stereo unspecified),1300
10,CCCC(C)Nc1nc(C)cc(N[C@@H](CC(C)C)C(=O)NCc2cccc(F)c2)n1 (stereo partly specified),1000
11,CC(O)C1CCCCN1C(=O)c1cccc(-c2cccc(-c3nc4cc(C(F)(F)F)ccc4[nH]3)c2)c1 (stereo unspecified),280
12,O=C(CCc1nc2c(cnn2-c2ccccc2)c(=O)[nH]1)NC1CCSc2ccccc21 (stereo unspecified),1060
13,CCn1c(-c2nc(-c3ccc4c(c3)OCO4)cnc2N)nc2cnccc21,429
14,c1cc(CNCCN2CCNCC2)cc(-c2cccc(-c3nc4ccccc4[nH]3)c2)c1,959
15,CC(C)CN1C(=O)c2ccccc2C(C(=O)Nc2cccc(C#N)c2)C1c1cccs1 (stereo unspecified),159
16,COc1ccc2cc(C(=O)Nc3ccc4c(c3)CCN(C3CCC3)CC4)ccc2c1,838
17,CN1CCN(c2ccnc3ccc(NC(=O)Nc4ccc(-c5ccncc5)c(C#N)c4)cc23)CC1,158
18,Cc1nnsc1C(=O)Nc1cccc(-c2cccc(-c3nc4cc(F)ccc4[nH]3)c2)c1,218
19,CCOC(=O)C1=C(C)NC2=C(C(=O)CC(C)(C)C2)C1c1ccc(Br)cc1 (stereo unspecified),1160
20,COc1cccc(O)c1CNCC(O)c1cccc(C(F)(F)F)c1 (stereo unspecified),945
21,O=C(/C=C/c1ccc(Cl)c(Cl)c1)NC1CCC(CN2CCC(c3nc4ccccc4n3CCCO)CC2)CC1 (stereo unspecified),577
22,O=c1ccc2ccc(F)c3c2n1CC3CN1CCC(NCc2cccc(-c3ccccc3F)c2)CC1 (stereo unspecified),1100
23,Cc1cc(-c2ccc(CNC3CCN(C)CC3)cc2)ccc1S(=O)(=O)NCc1ccccc1,851
24,COc1ccc(CN2CCN(CCOC(c3ccccc3)c3ccc(Cl)cc3)CC2)c(O)c1 (stereo unspecified),713

row,SMILES,XC50 [nM]
1,Cc1c(-c2cccc(C(C)(C)NC3CCN(Cc4ccccc4)CC3)c2)cnc(N)c1C,579
2,Cc1cc(NCCC(=O)NCCOc2ccccc2)nc(Nc2ccccc2)n1,1060
3,CC(C)C[C@H](NC(=O)[C@H](Cc1ccccc1)NC(=O)CCN1C(=O)COc2ccc(C(=O)O)cc21)C(=O)NC(CC1CCCCC1)C(O)CC(=O)NCCCn1ccnc1 (stereo partly specified),970
4,Nc1nc(F)nc2nc[nH]c12,432
5,COc1ccc(C2CCN(CCCCNC(=O)c3ccc(NC(=O)c4ccc(Cl)cc4)cc3)CC2)c(C)c1,747
6,CC1CN(Cc2ccc(-c3cccc(-c4nc5cc(F)ccc5[nH]4)c3)cc2)CC(C)O1 (stereo unspecified),917
7,N=C(N)NC(=O)Nc1cc(F)c(Cl)c(Br)c1,993
8,Cc1cc(N[C@@H](Cc2ccccc2)C(=O)NCCOc2ccccc2)nc(NCCc2ccccn2)n1,1520
9,Cn1nc(-c2ccc(S(=O)(=O)N3CCC(CCN4CCC(c5c[nH]c6ccccc56)CC4)CC3)s2)cc1C(F)(F)F,815
10,COc1ccc(C=Cc2ccc(-c3c(C)[nH]c(C)c(Cl)c3=O)cc2)cc1OC,283
11,CC(C)(C)OC(=O)N[C@@H](Cc1ccccc1)C(=O)Nc1cccc(-c2cccc(NC(=O)[C@H](Cc3ccccc3)NC(=O)OC(C)(C)C)c2)c1,609
12,COC(=O)c1ccc2nc(-c3ccc(C(=O)NC4CCN(Cc5ccccc5)CC4)s3)[nH]c2c1,688
13,CC1(C)N=C(N)N=C(N)N1OCc1cccc(C#N)c1,7.93
14,O=C(/C=C/c1ccc(Cl)c(Cl)c1)N1CCC(CN2CCC(c3nc4ccccc4n3CCCO)CC2)CC1,839
15,O=C(Nc1ccc(Cl)cc1)Nc1ccc(Cn2ncc(N3CCCNCC3)c(Cl)c2=O)cc1,783
16,CN1CC=C(C=Cc2c[nH]c3ccccc23)CC1,1340
17,COc1cccc(CNC(=O)NC2CCN(c3ccnc(Nc4ccc(F)cc4)n3)C2)c1 (stereo unspecified),805
18,CC(CCc1ccccc1)NCC(O)c1ccc2c3c(cccc13)S(=O)(=O)N2C (stereo unspecified),627
19,C=CCN1C(=O)c2[nH]nc(-c3cc(C)c(C)cc3O)c2C1c1cccc(Br)c1 (stereo unspecified),1160
20,CS(=O)(=O)c1cccc(-c2cnc(N)c3cc(-c4cccc(F)c4)ccc23)c1,860
21,CCOc1ccccc1C(=O)N1CCc2cc3nccc(N4CCN5CCC[C@H]5C4)c3cc21,753
22,Cc1ccc(-c2cc3nc4c(c(NCCCn5ccnc5)n3n2)CCC4)cc1,925
23,Fc1ccc(-c2cc(NCCCn3ccnc3)nc(-c3cccnc3)n2)cc1,974

# — ChEMBL document CHEMBL1157539, “Thousands of chemical starting points for antimalarial lead identification” (Nature, 2010)
